Data from patent US10624914B2, “Methods for determining the level of hyposialylation of Angptl4” (priority 2010, dated 2020).
“Also recorded” adds a separate entry of the source.

Assays:
mouse Angptl4 promoter = assay: Angptl4 promoter-reporter (SEAP) study in HEK 293 cells and GECs; format: cell-based; details: mifepristone 2×10^−5 M, glucocorticoid receptor antagonist
Description: We conducted 5′ RACE and primer extension analysis using mouse kidney mRNA and confirmed the same transcriptional start site in the kidney. Next, a 2 Kb fragment upstream of the transcriptional start site was clone using BAC clone RP23-27D5 as a template into pSEAP2 basic. A 2 Kb human Angptl4 promoter constructs were similarly generated using BAC clone RP11-886P16.
Incubation of HEK 293 cells and GECs transfected with Angptl4-pSEAP or empty vector promoter—reporter constructs for mouse Angptl4 with dexamethasone (10^−3 M) show a decline in SEAP activity at 48 hours. This decline in activity is mediated via the glucocorticoid receptor, since it is reversed by the receptor antagonist mifepristone (2×10^−5 M). Glucocorticoid sensitivity of the human promoter was also assessed (dexamethasone 10^−4 M). All transfection reactions were normalized using the pβgal vector (Clontech, Mountain View Calif. USA).

[1] = tested on: rats with puromycin aminonucleoside nephrosis (PAN model); assay: Nephrotic syndrome parameters in puromycin aminonucleoside nephrosis (PAN model) rats treated with ManNAc; format: in vivo, rat; details: ManNAc 80 mg/Kg body weight in tap water from Day 4, Day 6
Description: FIGS. 7A-D show improvement in nephrotic syndrome parameters in ManNAc treated rats with puromycin aminonucleoside nephrosis (PAN model). In FIGS. 7A-7D, rats (n=5 rats/group) received a single intravenous injection of puromycin aminonucleoside (10 mg/100 gm), and were treated with ManNAC 80 mg/Kg body weight in tap water starting on Day 4, which coincides with the onset of proteinuria.
Rats (n=5 rats/group) received a single intravenous injection of puromycin aminonucleoside (10 mg/100 gm), and were treated with ManNAC 80 mg/Kg body weight in tap water starting on Day 4, which coincides with the onset of proteinuria. Data from Day 6 is shown.

[2] = tested on: Zucker Diabetic Fatty rats; assay: Proteinuria in Zucker Diabetic Fatty rats treated with ManNAc; format: in vivo, rat; details: 13 week old male rats, ManNAc in tap water, 70 mg/Kg up to 20 days and 140 mg/Kg, vs plain tap water
Description: 13 week old male Zucker Diabetic Fatty rats were treated with ManNAc in tap water or with plain tap water (n=4 rats/group) at 70 and 140 mg/Kg.
These high pI hyposialylated forms of Angptl4 are sensitive to sialic acid precursor therapy, including ManNAc and ManNAc derivatives. […] In FIG. 8C, 13 week old male Zucker diabetic fatty rats were treated with ManNAc in tap water or with plain tap water (n=4 rats/group).

Angptl4 [3] = assay: 2D gel electrophoresis, Western blot and densitometry of glomerular Angptl4 from ManNAc fed NPHS2-Angptl4 TG rats; format: in vivo, rat
From the text: The following techniques are described in prior publications: Taqman real time PCR (26), confocal imaging (7), in situ hybridization (27), promoter—reporter studies (7), immunogold EM (26), glomerular extraction and processing for Western blot (26), assessment of charge by PEI method (28); the foregoing references are hereby incorproated by reference for such teachings. For alcian blue staining, the pH of the staining solution was adjusted to 2.5 using acetic acid, and 0.1% nuclear fast red solution was used as a counterstain. Densitometry of glomerular basement membrane alcian blue stain (20 glomeruli/rat, 3 rats/group) was assessed using Image-Pro software (Media Cybernetics, Inc., Bethesda Md., USA). Densitometry of 2D gel Western blots was assessed using Gel-Pro Analyzer software (Media Cybernetics, Inc.). For in situ hybridization, the digoxigenin labeled probe for rat Angptl4 included bp 1 to 548 of the ORF.
To study the effect of manNAc on the sialylation of recombinant protein, the Angptl4-HEK293 stable or pcDNA3.1-HEK293 control stable cell lines were grown to confluence in 15 cm dishes, washed twice with warm PBS, then incubated with serum free DMEM without phenol red with or without 25 mM manNAc for 48 hours, after which the media was harvested, concentrated, protein assay conducted, and loaded on the 2D gels (200 μg/gel). […]
To make the study affordable, 7 homozygous male NPHS2-Angptl4 rats, age 3-3.5 months, with 15-25 fold higher albuminuria than wild type rats, were given ManNAc 1 mg/ml of tap water for 12 days (ManNAc phase), after which three were euthanized and the others returned to plain tap water for another 24 days (washout phase). […] Another seven male NPHS2-Angptl4 rats of similar age were assessed for baseline albuminuria levels, given normal tap water (control group), three euthanized on Day 12 and others followed up to day 36, after which albuminuria was reassessed and the animals euthanized. […]

NPHS2-Angptl4 TG rats = assay: Albuminuria in NPHS2-Angptl4 TG rats given ManNAc in tap water; format: in vivo, rat
From the text: Transgenic rats were generated by microinjection of the digested DNA constructs into fertilized Sprague Dawley eggs (conducted at University of Michigan), implantation into pseudopregnant host Sprague Dawley females, and the resulting offsprings were genotyped by routine PCR and TaqMan genomic DNA real time PCR strategy using construct specific and control genomic prolactin primer and probe combinations. Two founder lines for podocyte specific expression were generated. Data from NPHS2-Angptl4 TG rat line 740 (5 copies of the transgene) and were stable over 4 generations, are presented. Urinary total protein was assessed using the Bradford method (Biorad laboratories, Hercules Calif. USA), and albuminuria by ELISA (Bethyl laboratories, Montgomery Tex. USA).
To make the study affordable, 7 homozygous male NPHS2-Angptl4 rats, age 3-3.5 months, with 15-25 fold higher albuminuria than wild type rats, were given ManNAc 1 mg/ml of tap water for 12 days (ManNAc phase), after which three were euthanized and the others returned to plain tap water for another 24 days (washout phase). 18 hour urine collections were done twice (Day- 12 and Day 0) before the study to confirm rising albuminuria, and periodically during the study. Another seven male NPHS2-Angptl4 rats of similar age were assessed for baseline albuminuria levels, given normal tap water (control group), three euthanized on Day 12 and others followed up to day 36, after which albuminuria was reassessed and the animals euthanized. Daily water intake of each rat was charted. At each euthanasia time point, kidneys were removed after perfusion, glomeruli isolated and processed for 2D gel electrophoresis. Albuminuria on Day 0 for each rats was denoted as 100% and all subsequent albuminuria values were expressed relative to Day 0.

Angptl4 [4] = assay: Sialylation of recombinant Angptl4 in Angptl4-HEK293 stable cell line incubated with ManNAc; format: cell-based, rat; details: ManNAc 25 mM, 48 hours
Description: To study the effect of manNAc on the sialylation of recombinant protein, the Angptl4-HEK293 stable or pcDNA3.1-HEK293 control stable cell lines were grown to confluence in 15 cm dishes, washed twice with warm PBS, then incubated with serum free DMEM without phenol red with or without 25 mM manNAc for 48 hours, after which the media was harvested, concentrated, protein assay conducted, and loaded on the 2D gels (200 μg/gel). Western blots of glomeruli or recombinant protein were conducted using rabbit anti-Angptl4 (full length) antibody, preimmune rabbit serum and lectins SNA I-HRP and MAA-HRP (E-Y laboratories, San Mateo Calif. USA).

| SMILES | dexamethasone-induced decline in SEAP activity (mouse Angptl4 promoter) | hypercholesterolemia (cholesterol) [1] | hypertriglyceridemia (triglycerides) [1] | plasma albumin levels [1] | proteinuria ([1]; vs control PAN rats) | proteinuria [2] | percentage of neutral pI forms of Angptl4 (effect in words) (Angptl4 [3]; Day 12, ManNAc fed rats vs control TG rats) | sialylation of glomerular Angptl4 (reactivity with lectin SNA I) (Angptl4 [3]; Day 12, ManNAc treated rats) | neutral pI Angptl4 fraction (densitometry of Western blots, glomerular Angptl4) (Angptl4 [3]; rats euthanized on Day 12, ManNAc 1 mg/ml) [%] | 18 hour albuminuria, nadir on Day 12 (NPHS2-Angptl4 TG rats; 1 mg/ml ManNAc in tap water for 12 days, Day 0 = 100%) | albuminuria (effect in words) (NPHS2-Angptl4 TG rats; ManNAc 1 mg/ml in tap water for 12 days) | reduction in albuminuria compared to baseline (NPHS2-Angptl4 TG rats; ManNAc 1 mg/ml in tap water, over a 12 day period) | albuminuria after washout (NPHS2-Angptl4 TG rats; after 12 days of washout following 12 days ManNAc 1 mg/ml) | reduction in albuminuria maintained (NPHS2-Angptl4 TG rats; pilot studies, heavily albuminuric NPHS2-Angptl4 rats, ManNAc 8 mg/ml tap water) | albuminuria (effect in words) (NPHS2-Angptl4 TG rats; pilot studies, heavily albuminuric rats, increasing doses of ManNAc (1 to 8 mg/ml)) | reactivity of Angptl4 to sialic acid binding lectin MAA (Angptl4 [4]) | sialylation of Angptl4 (Angptl4 [4]) | electrophoretic migration (pI) of secreted Angptl4 (Angptl4 [4]; serum free, concentrated supernatant) |
| --- | --- | --- | --- | --- | --- | --- | --- | --- | --- | --- | --- | --- | --- | --- | --- | --- | --- | --- |
| CC#C[C@]1(O)CC[C@H]2[C@@H]3CCC4=CC(=O)CCC4=C3[C@@H](c3ccc(N(C)C)cc3)C[C@@]21C [mifepristone] | reversed | – | – | – | – | – | – | – | – | – | – | – | – | – | – | – | – | – |
| CC(=O)N[C@@H]1C(O)O[C@H](CO)[C@@H](O)[C@@H]1O (stereo partly drawn) [ManNAc, N-acetylmannosamine] | – | significant reduction | significant reduction | significant improvement | significant reduction | Significant reduction | significant increase | increased sialylation | 72.9 ± 1.4 | 59.4±3.3 % of baseline | reduced albuminuria; also recorded: significant reduction | over 40% | returned towards baseline values | 20-30% | reduced albuminuria | increased reactivity | increased sialylation | shift of the protein towards neutral pI; also recorded: shift from high pI forms |
